From PubChem BioAssay (NCI)
Several values for one entry are separate records, joined by “and”; a condition that tells them apart may be missing. Equal entries are not always repeated.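 All cell lines were grown in 96-well plates and treated with compound for 48 hours. GI50 = concentration required for 50% inhibition of growth. TGI denotes the concentration required for complete inhibition of growth.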

How the values were obtained:
Assay in all cases: inhibition of tumour cell growth, NCI panel, 48 h
CCRF-CEM leukemia = test system: CCRF-CEM leukemia
OVCAR-4 ovarian = test system: OVCAR-4 ovarian
HCC-2998 colon = test system: HCC-2998 colon
COLO 205 colon = test system: COLO 205 colon
SK-OV-3 ovarian = test system: SK-OV-3 ovarian
DU-145 prostate = test system: DU-145 prostate
SNB-19 CNS = test system: SNB-19 CNS
NCI-H460 lung = test system: NCI-H460 lung
RPMI-8226 leukemia = test system: RPMI-8226 leukemia
SW-620 colon = test system: SW-620 colon

Compound	GI50 (CCRF-CEM leukemia)	TGI (CCRF-CEM leukemia)	GI50 (OVCAR-4 ovarian)	TGI (OVCAR-4 ovarian)	GI50 (HCC-2998 colon)	TGI (HCC-2998 colon)	GI50 (COLO 205 colon)	TGI (COLO 205 colon)	GI50 (SK-OV-3 ovarian)	TGI (SK-OV-3 ovarian)	GI50 (DU-145 prostate)	TGI (DU-145 prostate)	GI50 (SNB-19 CNS)	TGI (SNB-19 CNS)	GI50 (NCI-H460 lung) [µM]	TGI (NCI-H460 lung)	GI50 (RPMI-8226 leukemia) [µM]	TGI (RPMI-8226 leukemia)	GI50 (SW-620 colon)	TGI (SW-620 colon)
O=C1C(=O)c2ccccc2C(O)=C1CC=C(Cl)Cl	1.57 µM and 4.69 µM	52.1 µM and 162 µM and > 100 µM	18.9 µM and 26.9 µM	96.9 µM and 135 µM and > 100 µM	15.3 µM and 13.8 µM	> 80.9 µM and 133 µM and > 100 µM	11.4 µM and 11.2 µM	28.8 µM and > 85.5 µM and > 100 µM	15.1 µM and 16.1 µM	50.2 µM and 149 µM and > 100 µM	12 µM and 10.9 µM	204 µM and > 100 µM	7.46 µM and 9.74 µM	> 90.5 µM and 204 µM and > 100 µM	1.66	49.8 µM and 79.1 µM and 25.5 µM	6.53	37.4 µM and 65.2 µM and 45.9 µM	6.98 µM and 4.68 µM	> 80.5 µM and 231 µM and > 100 µM
[C-]#[N+][C@]12C(=O)[C@H](CCC1(C)C)C(C)(C)[C@H]1C(=O)N(C)c3cccc2c31	5.84 µM	> 100 µM	3.82 µM	> 100 µM	> 100 µM	> 100 µM	5.06 µM	> 100 µM	44.4 µM	> 100 µM	61.6 µM	> 100 µM	70 µM	> 100 µM	5.02	> 100 µM	13.1	> 100 µM	18.6 µM	> 100 µM
CN1CCN(CCNc2ccc(CO)c3sc4ccccc4c(=O)c23)CC1		> 48 µM		13.3 µM		18.6 µM		16.5 µM	3.17 µM	14 µM	3.43 µM	11.9 µM		36.1 µM		13.1 µM		23.4 µM		14.1 µM
C=CCC(N[C@H](CO)c1ccccc1)c1cn(S(=O)(=O)c2ccc(C)cc2)c2ccccc12 (some centres not stated)	22.6 µM	76.7 µM	73.7 µM	> 100 µM	15.8 µM	33.4 µM	35.3 µM	> 100 µM	59.7 µM	> 100 µM	26.7 µM	67.2 µM	60.8 µM	> 100 µM	> 100	> 100 µM	6.85	46.2 µM	31.8 µM	85.9 µM
CNC(=O)OC1C(O[C@H]2C[C@H]3[C@@H]4CC=C5C[C@@H](O)CC[C@]5(C)[C@H]4CC[C@]3(C)[C@H]2[C@H](C)C(=O)CCC(C)C)OCC(O)C1OC1OCC(O)C(O)C1OC(=O)c1ccc(OC)cc1 (some centres not stated)	0.00566 µM	0.0373 µM	0.291 µM	7.36 µM	0.693 µM	5.25 µM	0.0579 µM	0.361 µM	0.0177 µM	1.31 µM	0.0246 µM	6.12 µM	0.0204 µM	3.89 µM	0.0115	0.491 µM	< 0.00275	0.0112 µM	0.0122 µM	0.383 µM
COc1ccc2c(c1)cn1c3ccc(O)cc3[nH]c(=O)c21	0.149 µM	4.66 µM	2.41 µM	13.4 µM	0.667 µM	4.42 µM	0.409 µM	2.83 µM	0.202 µM	12.8 µM	0.234 µM	8.74 µM	0.203 µM	19.5 µM	0.138	1.62 µM	0.306	1.93 µM	0.043 µM	2.55 µM
CCCCCCCCCCCCCC(=O)C(C)N (configuration not stated)	8.35 µM	27.2 µM	3.9 µM	16.1 µM	2.87 µM	8.2 µM	1.95 µM	3.87 µM	9.36 µM	22 µM	2.59 µM	7.35 µM	13.5 µM	30.7 µM	4.16	15.3 µM	6.26	23.7 µM	11.6 µM	27.2 µM
N#C/C(N)=C(\C#N)N=Cc1csc2ccccc12	> 100 µM	> 100 µM	43.5 µM	> 100 µM	90.4 µM	> 100 µM	72.3 µM	> 100 µM	20.2 µM	46 µM	29.6 µM	> 100 µM	27.7 µM	71.9 µM	> 100	> 100 µM	> 100	> 100 µM	> 100 µM	> 100 µM
COc1ccc(Cl)cc1NC(=O)c1cccc([N+](=O)[O-])c1O		> 100 µM		> 88.3 µM		62.1 µM		32 µM		> 77.9 µM		> 100 µM		> 100 µM		> 81.2 µM		> 69.5 µM		> 100 µM
CS(=O)(=O)CCn1c(=O)c(Oc2ccc(F)cc2F)cc2cnc(NC3CCOCC3)nc21	> 25 µM	> 25 µM	> 25 µM	> 25 µM	> 25 µM	> 25 µM	> 25 µM	> 25 µM	> 25 µM	> 25 µM	> 25 µM	> 25 µM	> 25 µM	> 25 µM	> 25	> 25 µM	> 25	> 25 µM	> 25 µM	> 25 µM
COc1ccc(C(=O)COc2cccc(/C=C3\CSc4ccc(Cl)cc4C3=O)c2)cc1	1.82 µM	5.41 µM	11.7 µM	28.4 µM	15.5 µM	30 µM	14.1 µM	29 µM	25.9 µM	> 100 µM	12.7 µM	25.3 µM	6.99 µM	20.1 µM	16.2	34.9 µM	0.214	3.51 µM	1.82 µM	4.1 µM
COc1cc(NCc2ccccc2O)c2ncccc2c1	17 µM	> 100 µM	13.7 µM	> 100 µM	42.6 µM	> 100 µM	19.7 µM	77.2 µM	20.2 µM	50 µM	41.7 µM	> 100 µM	31.8 µM	> 100 µM	15.8	> 100 µM	11.8	79.5 µM	32.2 µM	> 100 µM
O=C(Nc1cccc(O)c1)c1cccc(NC2=C(Cl)C(=O)N(Cc3ccccc3)C2=O)c1	0.513 µM	> 100 µM	19.2 µM	47.9 µM	15.8 µM	29.4 µM	27.4 µM	67 µM	18.6 µM	34.6 µM	3.61 µM	16 µM	18.8 µM	41.4 µM	36.8	> 100 µM	1.49	27 µM	6.53 µM	29.9 µM
COC1C(O)C(C)OC(OC2CC3CCC4C(CCC5(C)C(C6=CC(=O)OC6)CCC45O)C3(O)C(OC(C)=O)C2)C1O (configuration not stated)		> 100 µM		17.1 µM		13 µM		8.48 µM		6.82 µM		1.65 µM		14.9 µM		2.74 µM		7.55 µM		> 36.7 µM
CCOc1ccc2ccc3cccnc3c2n1		> 100 µM		> 100 µM		> 100 µM		> 100 µM		95.2 µM		> 100 µM		> 100 µM		> 100 µM		62.5 µM		> 100 µM
CCCCCCC#CC#Cc1cccc(=O)o1	0.265 µM	> 19.8 µM	9.12 µM	23.1 µM	2.52 µM	6.12 µM	9.5 µM	20 µM	23.8 µM	> 70 µM	3.31 µM	8.26 µM	25.6 µM	45.9 µM	8.14	47.9 µM	1.72	27.3 µM	0.974 µM	2.78 µM
NC(Cc1ccnnc1)C(=O)O (configuration not stated)		> 100 µM		> 100 µM		> 100 µM		> 100 µM		> 100 µM		> 100 µM		> 100 µM		> 100 µM		> 100 µM		> 100 µM
O=C(Nc1ccccc1O)c1ccc(CNC(=O)c2sccc2Nc2ccnc(C(F)(F)F)c2)cc1	1.01 µM	> 100 µM	5.35 µM	> 100 µM	10.1 µM	22.4 µM	5.38 µM	19.2 µM	10.6 µM	37.3 µM	6.1 µM	21 µM	13.2 µM	31.1 µM	5.19	21.4 µM	3.59	36.2 µM	5.36 µM	20.4 µM
COc1ccc(/C=C(/C)[N+](=O)[O-])cc1		4.48 µM		10.6 µM		3.43 µM		4.3 µM		17.9 µM		6.26 µM		17.9 µM		5.22 µM		3.75 µM		> 20.6 µM
CCc1c(O)c2c(c(O)c1C(C)=O)C(=O)c1c(cc(O)c(C(=O)O)c1C(=O)O)C2=O		> 100 µM		> 100 µM		> 100 µM		> 100 µM		> 100 µM		> 100 µM		> 100 µM		> 100 µM		> 100 µM		> 100 µM
O=C(O)c1cc(Cc2ccc(O)c(C(=O)O)c2)ccc1O (tested in a mixture with another compound)	2.25 µM	> 100 µM	6.08 µM	29.2 µM	1.9 µM	3.73 µM	1.57 µM	3.41 µM	11.4 µM	24.6 µM	12 µM	27.8 µM	12.8 µM	28.2 µM	3.53	17.4 µM	2.62	> 100 µM	3.55 µM	23.5 µM
CC(C)(C)[Si](C)(C)OCC1C=CC(n2cnc3c(N)ncnc32)O1 (configuration not stated)		39.8 µM		> 100 µM		> 100 µM		> 100 µM		> 100 µM		> 100 µM		> 100 µM		> 100 µM		58.3 µM		> 95.8 µM
CC(=O)OC1CCC2(C)C(=CCC3C4CCC5(OC6CC(C)CN(C(C)=O)C6C5C)C(C)=C4C(=O)C32)C1 (configuration not stated)		> 100 µM		61.4 µM		28.8 µM		32.4 µM		66.8 µM		> 100 µM		32.7 µM		35.1 µM		37.6 µM		> 100 µM
C/C1=C/C(=O)O[C@@H]2C[C@@H](CC[C@H](C)/C=C\C=C\CC1)O[C@@](OCCc1ccccc1)([C@@H]1CSC(=O)N1)C2	0.282 µM	> 17.5 µM	0.225 µM	> 5.44 µM	6 µM	> 17.5 µM	0.0845 µM	0.401 µM	0.116 µM	> 5.4 µM	0.282 µM	> 17.5 µM	0.12 µM	> 17.5 µM	0.27	> 17.5 µM	3.28	> 17.5 µM	7.04 µM	> 17.5 µM
